# Read-outs that look alike come from different tables or passages of the source.
# Experiments:
# [1] = 14-day once-a-day oral multiple ascending dose PK study, day-14 data; type: in vivo, human; conditions: for Cmax: read-out: Formula I plasma concentration (Cmax); for concentration at 0 h: day 14, blood draw at 0 h (pre-dose trough)
# Procedure: (§1) A LC-MS/MS method was developed and validated for the quantitation of Formula I in 0.250 mL of human EDTA plasma in a total of 7 runs, out of which 1 run was rejected. The method utilized stable labeled Formula I as an internal standard. After the addition of the internal standard (equivalent to 285.4 ng/mL in human EDTA plasma) and 0.250 mL of each quality control (QC) sample and calibration standard, 0.525 mL of methyl t-butyl ether (MTBE) was added to the 96-well sample tubes. The organic layer was removed and evaporated to dryness using a liquid-liquid extraction (LLE). The residue was reconstituted and injected into the LC-MS/MS system. Chromatographic separation was achieved through gradient elution on an Acquity UPLC, BEH Shield RP18™, 50×2.1 mm, 1.7 μm particle size column. The mobile phase contained water, acetonitrile, ammonium formate, and formic acid. Detection was accomplished using a Sciex API 4000 tandem mass spectrometer in positive ion electrospray SRM mode. The standard curves, which ranged from 1.00 to 1000 ng/mL for Formula I, were fitted to a 1/×2 weighted linear regression model. The intra-assay precisions, based on four levels of analytical QCs (low, mid, GM, and high), were within 4.2% CV and inter-assay precisions were within 7.2% CV for the analyte. The assay accuracy, expressed as % DEV, was within 6.4% of the nominal concentration values for the analyte. […] The LLOQ response ratio, when compared to the QCO response ratio, was >, 5 in all matrix lots. The analyte was stable in human EDTA plasma for at least 24 h at room temperature, for at least 14 days at −20° C., and following at least 3 freeze-thaw cycles. The processed samples were stable for 72 hours (h) at room temperature.
# Tabulated, day-14 PK data (Cmax, Ctrough and AUC) for healthy humans in a 14-day, once-a-day oral dosing, multiple ascending dose study of compound of Formula I.
# [2] = Stability of Formula I in human EDTA plasma (LC-MS/MS validation); type: in vitro ADME
# Procedure: as §1
smiles,measurement,setting,value
"Clc1ccc(C2CNCc3cc(-c4ccc5ncnn5c4)ccc32)cc1Cl (stereo not drawn) [Formula I, 7-([1,2,4]triazolo[1,5-a]pyridin-6-yl)-4-(3,4-dichlorophenyl)-1,2,3,4-tetrahydroisoquinoline]",Formula I plasma concentration,"[1]; 3 mg daily, male, day 14, draw at about 23-24 h (Ctrough)",42 ng/mL
same,Cmax,"[1]; female, human, plasma, oral, 45 mg, 45 mg daily, day 14, draw flagged Cmax (1-3 h)",1680 ng/mL
same,concentration at 0 h,"[1]; female, human, plasma, oral, 45 mg, 45 mg daily, female, read-out: Formula I plasma concentration",997 ng/mL
same,concentration at 24 h,"[1]; female, human, plasma, oral, 45 mg, 45 mg daily, female, day 14, draw at about 24 h (Ctrough), read-out: Formula I plasma concentration",901 ng/mL
same,AUC,"[1]; female, human, plasma, oral, 45 mg, 45 mg daily, female, day 14, printed in the 24 h draw line",10100 ng·h/mL
same,concentration at 0 h,"[1]; male, human, plasma, oral, 3 mg, 3 mg daily, male, read-out: Formula I plasma concentration",42 ng/mL
same,Cmax,"[1]; male, human, plasma, oral, 3 mg, 3 mg daily, male, day 14, draw flagged Cmax (1-3 h)",66 ng/mL
same,AUC,"[1]; male, human, plasma, oral, 3 mg, 3 mg daily, male, day 14, printed in the 23-24 h draw line",439 ng·h/mL
same,Cmax,"[1]; male, human, plasma, oral, 10 mg, 10 mg daily, day 14, draw flagged Cmax (1-3 h)",218 ng/mL
same,concentration at 0 h,"[1]; male, human, plasma, oral, 10 mg, 10 mg daily, male, read-out: Formula I plasma concentration",125 ng/mL
same,AUC,"[1]; male, human, plasma, oral, 10 mg, 10 mg daily, male, day 14, printed in the 23-24 h draw line",1260 ng·h/mL
same,Cmax,"[1]; male, human, plasma, oral, 45 mg, 45 mg daily, day 14, draw flagged Cmax (1-2 h)",1150 ng/mL
same,concentration at 0 h,"[1]; male, human, plasma, oral, 45 mg, 45 mg daily, male, read-out: Formula I plasma concentration",635 ng/mL
same,concentration at 23 h,"[1]; male, human, plasma, oral, 45 mg, 45 mg daily, male, day 14, draw at 23 h (Ctrough), read-out: Formula I plasma concentration",672 ng/mL
same,AUC,"[1]; male, human, plasma, oral, 45 mg, 45 mg daily, male, day 14, printed in the 23 h draw line",6280 ng·h/mL
same,stable in human EDTA plasma,[2]; freeze-thaw,at least 3 freeze-thaw cycles
same,stable in human EDTA plasma,[2]; room temperature,at least 24 h
same,stable in human EDTA plasma,[2]; −20° C.,at least 14 days
